Data on nine molecules can be found in EP4678638A1, “NEW E3 UBIQUITIN LIGASE LIGAND, PROTEIN DEGRADATION AGENT AND USE THEREOF” (priority 2023, dated 2024).

In assay [1] the test system is SU-DHL-6. Put plainly: CCK-8 proliferation, SU-DHL-6. In kind it is cell-based. The note with it: Homo sapiens, read-out: Inhibitory activity (IC50) on tumor cell proliferation, SU-DHL-6. As for the experimental part:
(§1) The tumor cells used herein were cultured in a cell culture medium listed in table A1 at 37°C in an incubator with 5% CO2. Prior to experimentation, all cell lines used were correctly identified by STR profiling, and tested negative for mycoplasma contamination using a mycoplasma detection kit through routine screenings. Table A1. Tumor cells and cell culture medium used in the present disclosure
(§2) IC50 values of the compounds of the present disclosure (including the compounds in Table 1, and compounds of examples) were measured using the Meilun Cell Counting Kit-8 kit from Dalian Meilun Biotech Co., Ltd. Assay details are as follows: tumor cells were seeded in a 96-well plate at a density listed in Table A2. After 24h, 100 µL of the inoculated cells were treated with 0.5µL of the compounds of the present disclosure (including the compounds in Tables 1 and 2, and compounds of examples) at 10 different successively decreasing concentrations (starting at the highest concentration of 10µM; 5-fold serial dilutions). After the cells were treated with the compounds of the present disclosure for a period of time, the cell viability detection reagent was added to the culture medium for cell viability assessment according to the instructions provided with the CCK-8 kit. […] The growth inhibition of the compounds of the present disclosure on cells was plotted by Prism Graphpad software, and the IC50 values of the compounds of the present disclosure were calculated therefrom. […] Seeding protocol and treatment time for tumor cells

The test system of assay [2] is TMD8. Put plainly: CCK-8 proliferation, TMD8. The note with it: Homo sapiens, read-out: Inhibitory activity (IC50) on tumor cell proliferation, TMD8. In kind it is cell-based. As for the experimental part:
as §1, §2

Assay [3] addresses T1, human Cereblon WT GST-tagged protein (Homo sapiens, UniProt Q96SW2).
T1 construct: purchased CISBIO 64BDCRBNPEH
Put plainly: CRBN binding, HTRF (CEREBLON BINDING kit). Conditions: for inhibition at 0.5 µM: read-out: Inhibition rate (%) at 0.5µM; for inhibition at 2 µM: read-out: Inhibition rate (%) at 2 µM. The essentials:
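After 3 h at room temperature, emission at 665 and 620 nm was measured in a homogeneous time-resolved fluorescence format. Compounds competed with a Thalidomide-Re probe for GST-tagged wild-type human CRBN, which was labelled with a Eu anti-GST antibody.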
Background: TR-FRET usually uses a lanthanide donor and a delayed reading to cut background.

For assay [4], the system named is SW620. As to the kind of experiment: CCK-8 proliferation, SW620. The format is cell-based. The note with it: Homo sapiens, read-out: Inhibitory activity (IC50) on tumor cell proliferation, SW620. The essentials:
(§3)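 Cells seeded, then after 24 h treated with 10 concentrations (top 10 µM, 5-fold serial dilution) for a line-specific time at 37°C, 5% CO2. Viability read by CCK-8; IC50 fitted from growth-inhibition curves.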

Assay [5] relates to THP-1. Put plainly: CCK-8 proliferation, THP-1. In kind it is cell-based. The note with it: Homo sapiens, 72 hours, read-out: Inhibitory activity (IC50) on tumor cell proliferation, THP-1. As for the experimental part:
as §1, §2

Assay [6] relates to CCRF-CEM. As to the kind of experiment: CCK-8 proliferation, CCRF-CEM. Conditions: Homo sapiens, CCRF-CEM; CCK-8; 96 hours; read-out: Inhibitory activity (IC50) on tumor cell proliferation, CCRF-CEM. In kind it is cell-based, Human. The gist of the method:
as §3

Assay [7] has as its system Jurkat. Put plainly: CCK-8 proliferation, Jurkat. The format is cell-based, Human. Conditions: Homo sapiens, Jurkat; CCK-8; 96 hours; read-out: Inhibitory activity (IC50) on tumor cell proliferation, Jurkat. The essentials:
as §3

Assay [8] has as its system LNcap. Put plainly: CCK-8 proliferation, LNcap. In kind it is cell-based. Conditions: Homo sapiens, LNCaP; CCK-8; 96 hours; read-out: Inhibitory activity (IC50) on tumor cell proliferation, Lncap. The gist of the method:
as §3

Assay [9] relates to LS174T. Put plainly: CCK-8 proliferation, LS174T. Conditions: Homo sapiens, read-out: Inhibitory activity (IC50) on tumor cell proliferation, LS174T. In kind it is cell-based. Here is the method:
IC50 values of the compounds of the present disclosure (including the compounds in Table 1, and compounds of examples) were measured using the Meilun Cell Counting Kit-8 kit from Dalian Meilun Biotech Co., Ltd. Assay details are as follows: tumor cells were seeded in a 96-well plate at a density listed in Table A2. After 24h, 100 µL of the inoculated cells were treated with 0.5µL of the compounds of the present disclosure (including the compounds in Tables 1 and 2, and compounds of examples) at 10 different successively decreasing concentrations (starting at the highest concentration of 10µM; 5-fold serial dilutions). After the cells were treated with the compounds of the present disclosure for a period of time, the cell viability detection reagent was added to the culture medium for cell viability assessment according to the instructions provided with the CCK-8 kit. […] The growth inhibition of the compounds of the present disclosure on cells was plotted by Prism Graphpad software, and the IC50 values of the compounds of the present disclosure were calculated therefrom. [drawing 1519] Table A2. Seeding protocol and treatment time for tumor cells

Assay [10] relates to H2228. As to the kind of experiment: CCK-8 proliferation, NCI-H2228 (H2228). The format is cell-based. The note with it: Homo sapiens, NCI-H2228, 96 h, read-out: Inhibitory activity (IC50) on tumor cell proliferation, H2228. The essentials: as §3
Assay [11] has as its system PC-9. As to the kind of experiment: CCK-8 proliferation, PC-9. The note with it: Homo sapiens, PC-9, 96 h, read-out: Inhibitory activity (IC50) on tumor cell proliferation, PC-9. The format is cell-based, Human. The essentials: as §3
The subject of assay [12] is H1975. Put plainly: CCK-8 proliferation, NCI-H1975 (H1975). In kind it is cell-based, Human. The note with it: Homo sapiens, NCI-H1975, 96 h, read-out: Inhibitory activity (IC50) on tumor cell proliferation, H1975. The essentials: as §3
Assay [13] deals with MM.1R. As to the kind of experiment: CCK-8 proliferation, MM.1R. The format is cell-based. The note with it: 72 h, read-out: Inhibitory activity (IC50) on tumor cell proliferation, MM.1R. The essentials: as §3

A word on the inhibition: it is the relative decrease from the control value, in per cent.

Like-named read-outs stand apart in the source and are kept apart here.

T1 sequence (Q96SW2 whole entry): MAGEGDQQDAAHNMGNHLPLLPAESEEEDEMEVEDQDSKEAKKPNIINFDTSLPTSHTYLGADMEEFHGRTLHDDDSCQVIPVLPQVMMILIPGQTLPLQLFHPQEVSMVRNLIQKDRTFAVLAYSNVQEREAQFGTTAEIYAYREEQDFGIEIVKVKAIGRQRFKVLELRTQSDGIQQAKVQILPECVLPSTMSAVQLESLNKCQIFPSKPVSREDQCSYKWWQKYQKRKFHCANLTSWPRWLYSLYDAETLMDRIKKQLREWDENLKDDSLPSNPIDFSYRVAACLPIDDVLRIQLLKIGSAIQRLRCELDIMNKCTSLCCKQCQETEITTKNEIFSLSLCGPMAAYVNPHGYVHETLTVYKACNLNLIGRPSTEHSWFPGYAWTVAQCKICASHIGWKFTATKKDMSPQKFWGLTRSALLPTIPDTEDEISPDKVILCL

Turning to `Nc1ncnc2c1c(-c1ccc(Oc3ccccc3)cc1)nn2C1CCN(Cc2ccc(C3CCC(=O)NC3=O)cc2)CC1` (stereo not shown) [GT-03507, 3-(4-((4-(4-amino-3-(4-phenoxyphenyl)-1H-pyrazolo[3,4-d]pyrimidin-1-yl)piperidin-1-yl)methyl)phenyl)piperidine-2,6-dione], in [1] (SU-DHL-6, CCK-8, 72 hours), the IC50 was in the range of 500 to 1000 nM. Besides, the IC50 in assay [2] (TMD8, CCK-8, 72 hours) fell in the range of 100 to 500 nM. Further, in [3], the inhibition at 0.5 µM is 30 to 40% and the inhibition at 2 µM lay within 80 to 100%.

For the molecule `Nc1ncnc2c1c(-c1ccc(Oc3ccccc3)cc1)nn2C1CCN(Cc2ccc(C3CCC(=O)NC3=O)c(F)c2)CC1` (stereo not shown) [GT-03508, 3-(4-((4-(4-amino-3-(4-phenoxyphenyl)-1H-pyrazolo[3,4-d]pyrimidin-1-yl)piperidin-1-yl)methyl)-2-fluorophenyl)piperidine-2,6-dione], the IC50 in assay [1] (SU-DHL-6, CCK-8, 72 hours) was in the range of 500 to 1000 nM; in [2] (TMD8, CCK-8, 72 hours), 100 to 500 nM. Also, the inhibition at 0.5 µM in [3] (Table II-2, CRBN binding screening, HTRF, at 0.5µM) was 30 to 40%. In addition, the inhibition at 2 µM in assay [3] (Table II-2, CRBN binding screening, HTRF, at 2 µM) is 60 to 80%.

Consider `Nc1ncnc2c1c(-c1ccc(Oc3ccccc3)cc1)nn2[C@H]1CCN(Cc2ccc(C3CCC(=O)NC3=O)c(F)c2)C[C@H]1F` (stereo partly drawn) [GT-03513, 3-(4-(((3R,4S)-4-(4-amino-3-(4-phenoxyphenyl)-1H-pyrazolo[3,4-d]pyrimidin-1-yl)-3-fluoropiperidin-1-yl)methyl)-2-fluorophenyl)piperidine-2,6-dione], for which the IC50 in assay [1] (SU-DHL-6, CCK-8, 72 hours) fell in the range of 100 to 500 nM; in assay [2] (TMD8, CCK-8, 72 hours), 100 to 500 nM.

For `Nc1ncnc2c1c(-c1ccc(Oc3ccccc3)cc1)nn2[C@H]1CCN(Cc2ccc(C3CCC(=O)NC3=O)cc2)C[C@H]1F` (stereo partly drawn) [GT-03542, 3-(4-(((3R,4S)-4-(4-amino-3-(4-phenoxyphenyl)-1H-pyrazolo[3,4-d]pyrimidin-1-yl)-3-fluoropiperidin-1-yl)methyl)phenyl)piperidine-2,6-dione], the IC50 in assay [1] (SU-DHL-6, CCK-8, 72 hours) is 100 to 500 nM. Moreover, in assay [2] (TMD8, CCK-8, 72 hours), the IC50 fell in the range of 100 to 500 nM. For the same molecule, in assay [3], the inhibition at 0.5 µM was in the range of 20 to 30% and the inhibition at 2 µM was 80 to 100%.

For `CC1(C)CCC(c2ccc(Cl)cc2)=C(CN2CCN(c3ccc(C(=O)NS(=O)(=O)c4ccc(N[C@H](CCN5CCN(Cc6ccc(C7CCC(=O)NC7=O)cc6)CC5)CSc5ccccc5)c(S(=O)(=O)C(F)(F)F)c4)cc3)CC2)C1` (stereo partly drawn) [GT-04151, 4-(4-((4'-chloro-4,4-dimethyl-3,4,5,6-tetrahydro-[1,1'-biphenyl]-2-yl)methyl)piperazin-1-yl)-N-((4-(((2R)-4-(4-(4-(2,6-dioxopiperidin-3-yl)benzyl)piperazin-1-yl)-1-(phenylthio)butan-2-yl)amino)-3-((trifluoromethyl)sulfonyl)phenyl)sulfonyl)benzamide], the IC50 in assay [4] (SW-620, CCK-8, 96 hours) was 10 to 50 nM; in [2] (TMD8, CCK-8, 72 hours) it was 1 to 10 nM; in [5] it was 1 to 10 nM; in [6] it was less than 1 nM; in assay [7], 1 to 10 nM; in assay [8], 10 to 50 nM. The IC50 in assay [9] fell in the range of 50 to 100 nM.

As for `CC1(C)CCC(c2ccc(Cl)cc2)=C(CN2CCN(c3ccc(C(=O)NS(=O)(=O)c4ccc(N[C@H](CCN5CCN(Cc6ccc(C7CCC(=O)NC7=O)c(F)c6)CC5)CSc5ccccc5)c(S(=O)(=O)C(F)(F)F)c4)cc3)CC2)C1` (stereo partly drawn) [GT-04152, 4-(4-((4'-chloro-4,4-dimethyl-3,4,5,6-tetrahydro-[1,1'-biphenyl]-2-yl)methyl)piperazin-1-yl)-N-((4-(((2R)-4-(4-(4-(2,6-dioxopiperidin-3-yl)-3-fluorobenzyl)piperazin-1-yl)-1-(phenylthio)butan-2-yl)amino)-3-((trifluoromethyl)sulfonyl)phenyl)sulfonyl)benzamide], the IC50 in assay [4] (SW-620, CCK-8, 96 hours) was in the range of 1 to 10 nM; in [2] (TMD8, CCK-8, 72 hours), 1 to 10 nM; in assay [5], 10 to 50 nM; in [6] it was 1 to 10 nM; in [7] it was 1 to 10 nM; in assay [8], 50 to 100 nM. For the same molecule, the IC50 in assay [9] lay within 50 to 100 nM.

With `CC1(C)CCC(c2ccc(Cl)cc2)=C(CN2CCN(c3ccc(C(=O)NS(=O)(=O)c4ccc(N[C@H](CCN5CCN(Cc6cccc(N7CCC(=O)NC7=O)c6)CC5)CSc5ccccc5)c(S(=O)(=O)C(F)(F)F)c4)cc3)CC2)C1` [GT-04278, (R)-4-(4-((4'-chloro-4,4-dimethyl-3,4,5,6-tetrahydro-[1,1'-biphenyl]-2-yl)methyl)piperazin-1-yl)-N-((4-((4-(4-(3-(2,4-dioxotetrahydropyrimidin-1(2H)-yl)benzyl)piperazin-1-yl)-1-(phenylthio)butan-2-yl)amino)-3-((trifluoromethyl)sulfonyl)phenyl)sulfonyl)benzamide], the IC50 in [4] (SW-620, CCK-8, 96 hours) fell in the range of 100 to 500 nM; in [2] (TMD8, CCK-8, 72 hours), 10 to 50 nM; in [5], 10 to 50 nM; in assay [6] it was 1 to 10 nM; in assay [7], 10 to 50 nM; in [8], 100 to 500 nM. Moreover, in [9], the IC50 lay within 500 to 1000 nM.

For `CC1(C)CCC(c2ccc(Cl)cc2)=C(CN2CCN(c3ccc(C(=O)NS(=O)(=O)c4ccc(N[C@H](CCN5CCN(Cc6cccc(NC7CCC(=O)NC7=O)c6)CC5)CSc5ccccc5)c(S(=O)(=O)C(F)(F)F)c4)cc3)CC2)C1` (stereo partly drawn) [GT-04279, 4-(4-((4'-chloro-4,4-dimethyl-3,4,5,6-tetrahydro-[1,1'-biphenyl]-2-yl)methyl)piperazin-1-yl)-N-((4-(((2R)-4-(4-(3-((2,6-dioxopiperidin-3-yl)amino)benzyl)piperazin-1-yl)-1-(phenylthio)butan-2-yl)amino)-3-((trifluoromethyl)sulfonyl)phenyl)sulfonyl)benzamide], the IC50 in assay [4] (SW-620, CCK-8, 96 hours) was 50 to 100 nM; in assay [2] (TMD8, CCK-8, 72 hours) it was 10 to 50 nM; in assay [5], 10 to 50 nM; in [6], 1 to 10 nM; in assay [7], 10 to 50 nM; in [8] it was 50 to 100 nM. The IC50 in [9] is 100 to 500 nM.

`C=CC(=O)N1CCC[C@@H](n2nc(-c3ccc(Oc4ccccc4)cc3)c3c(N)ncnc32)C1` [ibrutinib, Ibrutinib, reference compound]: the IC50 in [10] is more than 10000 nM; in assay [11], 100 to 500 nM; in assay [12], 500 to 1000 nM; in assay [13] it was more than 10000 nM; in [4] (SW-620, 96 h), more than 10000 nM; in [1] (SU-DHL-6, 72 h), 100 to 500 nM. The IC50 in assay [2] (TMD8, 72 h) is more than 10000 nM.
